Legend:
[1] = test system: KRas-mediated phosphorylation of ERK in H460 cells; experiment: Inhibition of KRas-mediated phosphorylation of ERK (Cisbio HTRF pERK), H460 cells; assay type: cell-based; details: for inhibition at 0.1 µM / IC50: Homo sapiens; for inhibition at 0.1 µM: NCI-H460, 3 h; for IC50: NCI-H460, HTRF pERK
Description: (§1) Inhibition of KRas Phosphorylation of ERK (HTRF) by Exemplary Compounds of Formula (I) Cisbio HTRF Advanced PERK Assay Catalog #64[…] […] Add 10 mL of media to stop trypsinizing. Pipette the cells into a conical bottom 50 mL centrifuge tube and centrifuge 5 min×1000 rpm. […] Re-suspend the cell pellet in media, take a cell count, and then adjust the cell density using fresh media. […] Seed 6,000 cells into cell culture plate with 50 μL media. […] Use Tecan to complete the compound addition. Compounds start from 10 uM top, 3-fold dilution, and 10 doses. The final DMSO concentration is 0.8%. Dispensed 0.2 uM Trametinib as Min control. […] Incubate cell plate for 3 hrs in the incubator. […] Dilute 1 volume of 4× lysis buffer with 3 volumes of deionized water. […] Keep lysis buffer on the ice. […] At the end of the compound treatment, flick-off the media. […] Add 35 μL of lysis buffer per well using a Multidrop Combi. Then place on a plate agitator shaking at 300 rpm at 4° C. for 40 mins. […] Make up the HTRF antibody buffer. For each assay plate, mix 50 μL of d2-conjugate antibody with 950 μL of detection buffer. Similarly, mix 50 μL of Cryptate antibody with 950 μL of detection buffer. Then mix the two diluted antibodies together. […] Dispense 3.4 μL the antibody buffer to wells of an empty assay plate. Seal the plate and centrifuge plate 30 sec×1000 rpm. […] At the end of the 4° C. lysis, centrifuge the lysate plates 3 mins×1500 rpm. […] Use the Bravo to transfer 13.6 μL of lysate from cell culture plate to assay plate. Then incubate assay plate for 2 hrs at room temperature. 8. At the end of incubation, read plate on the Envision after centrifuging plate 30 sec×1000 rpm.

KRas^G12D = molecular target: T1, KRas^G12D (Homo sapiens, UniProt P01116, G12D); experiment: KRas binding assay (TR-FRET tracer displacement), KRas G12D
T1 construct: Biotinylated KRas (corresponding to amino acids 1-169, produced at Accelegan Inc.); biotin (biotinylated); purchased Accelegan Inc

[2] = test system: KRas-mediated phosphorylation of ERK in H727 cells; experiment: Inhibition of KRas-mediated phosphorylation of ERK (Cisbio HTRF pERK), H727 cells; assay type: cell-based; details: for IC50: HTRF pERK
Summary of the method: (§2)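 Following a 3-hr exposure of cells to serially diluted compound (from 10 uM, 3-fold, 10 doses), cold lysis for 40 mins preceded a 2-hr room-temperature HTRF immunoassay for phosphorylated ERK.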

[3] = test system: KRas-mediated phosphorylation of ERK in H358 cells; experiment: Inhibition of KRas-mediated phosphorylation of ERK (Cisbio HTRF pERK), H358 cells; assay type: cell-based; details: for inhibition at 0.1 µM / IC50: Homo sapiens; for inhibition at 0.1 µM: NCI-H358, 3 h; for IC50: NCI-H358, HTRF pERK
Description: as §1

KRas^G12R = molecular target: T2, KRas^G12R (Homo sapiens, UniProt P01116, G12R); experiment: KRas binding assay (TR-FRET tracer displacement), KRas G12R
T2 construct: Biotinylated KRas (corresponding to amino acids 1-169, produced at Accelegan Inc.); biotin (biotinylated); purchased Accelegan Inc

[4] = test system: KRas-mediated phosphorylation of ERK in AsPC-1 cells; experiment: Inhibition of KRas-mediated phosphorylation of ERK (Cisbio HTRF pERK), AsPC-1 cells; assay type: cell-based; details: for IC50: HTRF pERK
Summary of the method: as §2

[5] = test system: KRas-mediated phosphorylation of ERK in A549 cells; experiment: Inhibition of KRas-mediated phosphorylation of ERK (Cisbio HTRF pERK), A549 cells; assay type: cell-based; details: for inhibition at 0.1 µM / IC50: Homo sapiens; for inhibition at 0.1 µM: A549, 3 h; for IC50: HTRF pERK
Description: as §1

[6] = test system: KRas-mediated phosphorylation of ERK in HCT116 cells; experiment: Inhibition of KRas-mediated phosphorylation of ERK (Cisbio HTRF pERK), HCT116 cells; assay type: cell-based; details: for inhibition at 0.1 µM / IC50: Homo sapiens; for inhibition at 0.1 µM: HCT-116, 3 h; for IC50: HCT-116, HTRF pERK
Description: as §1

KRas^G12V = molecular target: T3, KRas^G12V (Homo sapiens, UniProt P01116, G12V); experiment: KRas binding assay (TR-FRET tracer displacement), KRas G12V
T3 construct: Biotinylated KRas (corresponding to amino acids 1-169, produced at Accelegan Inc.); biotin (biotinylated); purchased Accelegan Inc

[7] = single point, 100 nM compound, 3 hrs, 0.1 µM
[8] = single point, 100 nM compound, 3 hrs
[9] = Homo sapiens, NCI-H727, H727 cells
[10] = Homo sapiens, ASPC1, AsPC-1 cells

T2 sequence (P01116 1-169 isoform P01116-2 G12R): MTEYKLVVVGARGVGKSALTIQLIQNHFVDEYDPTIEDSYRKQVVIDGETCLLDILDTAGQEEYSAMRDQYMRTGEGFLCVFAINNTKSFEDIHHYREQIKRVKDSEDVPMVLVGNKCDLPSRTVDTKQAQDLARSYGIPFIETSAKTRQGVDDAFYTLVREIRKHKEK
T3 sequence (P01116 1-169 isoform P01116-2 G12V): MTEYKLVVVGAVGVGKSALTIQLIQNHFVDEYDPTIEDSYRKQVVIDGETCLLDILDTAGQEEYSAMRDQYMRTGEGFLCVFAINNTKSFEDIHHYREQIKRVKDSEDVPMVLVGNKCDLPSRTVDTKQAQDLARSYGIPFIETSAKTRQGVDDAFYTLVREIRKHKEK
T1 sequence (P01116 1-169 isoform P01116-2 G12D): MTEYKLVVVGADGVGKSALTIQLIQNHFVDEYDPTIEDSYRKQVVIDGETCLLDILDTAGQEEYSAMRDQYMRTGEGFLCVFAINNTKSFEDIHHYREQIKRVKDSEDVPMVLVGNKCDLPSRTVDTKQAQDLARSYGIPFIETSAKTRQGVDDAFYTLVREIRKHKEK

| IC50 (KRas^G12D) | IC50 (KRas^G12R) | IC50 (KRas^G12V) | IC50 [2, 9] | IC50 [4, 10] | SMILES | inhibition at 0.1 µM [1, 8] | inhibition at 0.1 µM [3, 8] | inhibition at 0.1 µM [5, 8] | inhibition at 0.1 µM [6, 8] | other results |
| --- | --- | --- | --- | --- | --- | --- | --- | --- | --- | --- |
| 262 nM | 182 nM | 85 nM |  |  | CCc1c(F)ccc2cc(O)cc(-c3ncc4c(N5CC6CCC(C5)C6C#N)nc(OC[C@@]56CCCN5C[C@H](F)C6)nc4c3F)c12 (single isomer, unassigned) [Example 560] |  |  |  |  | Inhibition (HTRF % at 100 nM) of KRas-mediated Phosphorylation of ERK, H460 [1, 7]: 10%; IC50 ([2]; H727 cells): 724 nM; Inhibition (HTRF % at 100 nM) of KRas-mediated Phosphorylation of ERK, H727 ([2]; single point, 100 nM compound, 3 hrs, H727 cells, 0.1 µM): 8%; Inhibition (HTRF % at 100 nM) of KRas-mediated Phosphorylation of ERK, H358 [3, 7]: 4%; IC50 ([4]; AsPC-1 cells): 3100 nM; Inhibition (HTRF % at 100 nM) of KRas-mediated Phosphorylation of ERK, AsPC-1 ([4]; single point, 100 nM compound, 3 hrs, AsPC-1 cells, 0.1 µM): 5%; Inhibition (HTRF % at 100 nM) of KRas-mediated Phosphorylation of ERK, A549 [5, 7]: 15%; Inhibition (HTRF % at 100 nM) of KRas-mediated Phosphorylation of ERK, HCT116 [6, 7]: 12% |
| 106 nM | 38 nM | 17 nM | 605 nM | 985 nM | CCc1c(F)ccc2cc(O)cc(-c3ncc4c(NCc5cc(C(=O)N(C)C)nn5C5CCS(=O)(=O)C5)nc(OC[C@@]56CCCN5C[C@H](F)C6)nc4c3F)c12 (single isomer, unassigned) [Example 694] | -3% | 9% | -8% | -10% |  |
| 864 nM | 79 nM | 77 nM | 1630 nM | 5160 nM | C#CC1(F)CCN(c2nc(OC[C@@]34CCCN3C[C@H](F)C4)nc3c(F)c(-c4cc(O)cc5ccc(F)c(CC)c45)ncc23)CC1 [Example 553, 5-ethyl-4-(4-(4-ethynyl-4-fluoropiperidin-1-yl)-8-fluoro-2-(((2R,7aS)-2-fluorotetrahydro-1H-pyrrolizin-7a(5H)-yl)methoxy)pyrido[4,3-d]pyrimidin-7-yl)-6-fluoronaphthalen-2-ol] | 0% | 3% | 0% | 6% |  |
|  |  |  | 21 nM | 115 nM | CCNC(=O)c1cc2n(n1)CCCCN(c1nc(OC[C@@]34CCCN3C[C@H](F)C4)nc3c(F)c(-c4cc(O)cc5ccc(F)c(CC)c45)ncc13)C2 [Example 673, N-ethyl-5-(7-(8-ethyl-7-fluoro-3-hydroxynaphthalen-1-yl)-8-fluoro-2-(((2R,7aS)-2-fluorotetrahydro-1H-pyrrolizin-7a(5H)-yl)methoxy)pyrido[4,3-d]pyrimidin-4-yl)-4,5,6,7,8,9-hexahydropyrazolo[1,5-a][1,4]diazocine-2-carboxamide] | 8% | 88% | 43% | 16% | inhibition at 0.1 µM ([2]; Homo sapiens, NCI-H727, 3 h, single point, 100 nM compound, 3 hrs, H727 cells): 53%; inhibition at 0.1 µM ([4]; Homo sapiens, ASPC1, 3 h, single point, 100 nM compound, 3 hrs, AsPC-1 cells): 8% |
|  |  |  | > 10000 nM | > 10000 nM | CCc1c(F)ccc2cc(O)cc(-c3ncc4c(N5CC6CNCC6C5CO)nc(OC[C@@]56CCCN5C[C@H](F)C6)nc4c3F)c12 (stereo partly drawn) [Example 890, 5-ethyl-6-fluoro-4-(8-fluoro-2-(((2R,7aS)-2-fluorotetrahydro-1H-pyrrolizin-7a(5H)-yl)methoxy)-4-(1-(hydroxymethyl)hexahydropyrrolo[3,4-c]pyrrol-2 (1H)-yl)pyrido[4,3-d]pyrimidin-7-yl)naphthalen-2-ol] |  |  |  |  | IC50 [1]: > 10000 nM; IC50 [3]: > 10000 nM; IC50 [5]: > 10000 nM; IC50 [6]: > 10000 nM |
|  |  |  | 571 nM | 580 nM | CCc1c(F)ccc2cc(O)cc(-c3ncc4c(N5CC6CCC(CCC(=O)N(C)C)(C6)C5)nc(OC[C@@]56CCCN5C[C@H](F)C6)nc4c3F)c12 (stereo partly drawn) [Example 913, 3-(3-(7-(8-ethyl-7-fluoro-3-hydroxynaphthalen-1-yl)-8-fluoro-2-(((2R,7aS)-2-fluorotetrahydro-1H-pyrrolizin-7a(5H)-yl)methoxy)pyrido[4,3-d]pyrimidin-4-yl)-3-azabicyclo[3.2.1]octan-1-yl)-N,N-dimethylpropanamide] |  |  |  |  | IC50 [1]: 112 nM; IC50 [3]: 146 nM; IC50 [5]: 246 nM; IC50 [6]: 211 nM |

Second part, the compound before the results:

| SMILES | IC50 (KRas^G12D) | IC50 (KRas^G12R) | IC50 (KRas^G12V) | IC50 [2, 9] | IC50 [4, 10] | inhibition at 0.1 µM [1, 8] | inhibition at 0.1 µM [3, 8] | inhibition at 0.1 µM [5, 8] | inhibition at 0.1 µM [6, 8] | other results |
| --- | --- | --- | --- | --- | --- | --- | --- | --- | --- | --- |
| CCc1c(F)ccc2cc(O)cc(-c3ncc4c(N5CCC[C@@](C)(O)C5)nc(N5CC(C)(N)C5)nc4c3F)c12 [Example 530, (R)-1-(2-(3-amino-3-methylazetidin-1-yl)-7-(8-ethyl-7-fluoro-3-hydroxynaphthalen-1-yl)-8-fluoropyrido[4,3-d]pyrimidin-4-yl)-3-methylpiperidin-3-ol] | 59 nM | 91 nM | 66 nM | 4390 nM | 2770 nM | 18% | 6% | 15% | -6% |  |
| CCc1c(F)ccc2cc(O)cc(-c3ncc4c(N5CCC[C@@](C)(O)C5)nc(N5CC(N(C)C)C5)nc4c3F)c12 [Example 533, (R)-1-(2-(3-(dimethylamino)azetidin-1-yl)-7-(8-ethyl-7-fluoro-3-hydroxynaphthalen-1-yl)-8-fluoropyrido[4,3-d]pyrimidin-4-yl)-3-methylpiperidin-3-ol] | 72 nM | 119 nM | 105 nM | 1970 nM | 1500 nM | 8% | -7% | 27% | 8% |  |
| CCc1c(F)ccc2cc(O)cc(-c3ncc4c(N5CCCC6(C5)NC(=O)NC6=O)nc(N5CC(N(C)C)C5)nc4c3F)c12 (stereo not shown) [Example 534, 7-(2-(3-(dimethylamino)azetidin-1-yl)-7-(8-ethyl-7-fluoro-3-hydroxynaphthalen-1-yl)-8-fluoropyrido[4,3-d]pyrimidin-4-yl)-1,3,7-triazaspiro[4.5]decane-2,4-dione] | 7 nM | 2 nM | 5 nM | 1620 nM | 5810 nM | -6% | -9% | -19% | -6% |  |
| CCc1c(F)ccc2cc(O)cc(-c3ncc4c(N5CCCn6nc(C(=O)N(C)C)cc6C5)nc(N5CC(N(C)C)C5)nc4c3F)c12 [Example 535, 5-(2-(3-(dimethylamino)azetidin-1-yl)-7-(8-ethyl-7-fluoro-3-hydroxynaphthalen-1-yl)-8-fluoropyrido[4,3-d]pyrimidin-4-yl)-N,N-dimethyl-5,6,7,8-tetrahydro-4H-pyrazolo[1,5-a][1,4]diazepine-2-carboxamide] | 17 nM | 44 nM | 27 nM | 2190 nM | 1620 nM | 16% | -8% | -9% | -3% |  |
| CCc1c(F)ccc2cc3[nH]ncc3c(-c3ncc4c(N5CCCC6(CNS(=O)(=O)N6)C5)nc(OC[C@@]56CCCN5C[C@H](F)C6)nc4c3F)c12 (stereo partly shown) [Example 872] |  |  |  | 1210 nM | 328 nM |  |  |  |  | IC50 [1]: 318 nM; IC50 [3]: 197 nM; IC50 [5]: 581 nM; IC50 [6]: 636 nM |

From US20260015350A1, “AZAQUINAZOLINE PAN-KRAS INHIBITORS” (Mirati Therapeutics, Inc., priority 2022, published 2026)
